From patent US7282503B2 (priority 2002, dated 2007)
Where two headings read alike, the source gives them in different places.

Legend:
Plasmopara viticola = test: Activity against peronospora of vines caused by Plasmopara viticola (protective spray, potted vines); assay type: in vivo, Plasmopara viticola on vines cultivar Müller-Thurgau; conditions: individual active compound, control 88% infection
Experimental: The active compounds, separately or together, were prepared as a stock solution with 0.25% by weight of active compound in acetone or DMSO. 1% by weight of the emulsifier Uniperol® EL (wetting agent having emulsifying and dispersing action based on ethoxylated alkylphenols) was added to this solution, and the solution was diluted with water to the desired concentration.
Evaluation is carried out by determining the infected leaf areas as a percentage. These percentages are converted into efficacies. The efficacy (W) is calculated as follows using Abbot's formula: W=(1−α/β)·100 α corresponds to the fungal infection of the treated plants in % and β corresponds to the fungal infection of the untreated (control) plants in % An efficacy of 0 means that the infection level of the treated plants corresponds to that of the untreated control plants; an efficacy of 100 means that the treated plants were not infected. The expected efficacies of the mixtures of the active compounds are determined using Colby's formula [R. S. Colby, Weeds 15, 20-22 (1967)] and compared with the observed efficacies. Colby's formula: E=x+y−x·y/100 […]
E expected efficacy, expressed as a % of the untreated control, when using the mixture of the active compounds A and B at the concentrations a and b x efficacy, expressed as a % of the untreated control, when using active compound A at a concentration a y efficacy, expressed as a % of the untreated control, when using active compound B at a concentration b Leaves of potted vines of the cultivar “Müller-Thurgau” were sprayed to runoff point with an aqueous suspension having the concentration of active compounds stated below. The next day, the undersides of the leaves were inoculated with an aqueous zoospore suspension of Plasmopara viticola. The vines were then initially placed in a water-vapor-saturated chamber at 24° C. for 48 hours and then in a greenhouse at 20-30° C. for 5 days. After this period of time, the plants were again placed in a moist chamber for 16 hours to promote sporangiophore eruption. The extent to which the infection had developed on the undersides of the leaves was then determined visually.

Phytophthora infestans = assay type: in vivo; conditions: individual active compound, control 90% infection

SMILES	Efficacy in % of the untreated control (Plasmopara viticola; 3.75 ppm in spray liquor) [%]	Efficacy in % of the untreated control (Plasmopara viticola; 7.5 ppm in spray liquor) [%]	Efficacy in % of the untreated control (Phytophthora infestans; 3.75 ppm in spray liquid) [%]	Efficacy in % of the untreated control (Phytophthora infestans; 7.5 ppm in spray liquid) [%]	Efficacy in % of the untreated control (Phytophthora infestans; 15 ppm in spray liquid) [%]	Efficacy in % of the untreated control (Phytophthora infestans; 30 ppm in spray liquid) [%]	Efficacy in % of the untreated control (Plasmopara viticola; 3 ppm in spray liquor) [%]	Efficacy in % of the untreated control (Plasmopara viticola; 6 ppm in spray liquor) [%]	Efficacy in % of the untreated control (Phytophthora infestans; 0.75 ppm in spray liquid) [%]	Efficacy in % of the untreated control (Phytophthora infestans; 1.5 ppm in spray liquid) [%]	Efficacy in % of the untreated control (Phytophthora infestans; 3 ppm in spray liquid) [%]	Efficacy in % of the untreated control (Phytophthora infestans; 6 ppm in spray liquid) [%]
CC1CCN(c2c(-c3c(F)cc(F)cc3F)c(Cl)nc3ncnn23)CC1 [I, 5-chloro-7-(4-methyl-pipiridin-1-yl)-6-(2,4,6-trifluorophenyl)-[1,2,4]triazolo[1,5-a]pyrimidine]	9	32	0	0	0	33	–	–	–	–	–	–
Cc1ccc(-c2c(Cl)nc(C#N)n2S(=O)(=O)N(C)C)cc1 [IIa, cyazofamid]	–	–	–	–	–	–	72	83	56	67	78	89
